Data published in patent US9216178B2, “Dry blend formulation of tetrahydrobiopterin” (BioMarin Pharmaceutical Inc., priority 2011, dated 2015).
Structures can show the parent of a compound that is named as a salt. Each block holds one molecule with its values, some of them ahead of it.

Legend:
[1] = Stability of BH4 dihydrochloride dry blend powder / sachet formulations; type: physicochemical; settings: Initial time point
Protocol: Stability under different storage conditions were assessed and the potency of the active BH4 dihydrochloride is presented.
Certain embodiments of the sachet dosage forms of the present disclosure are illustrated in Table 18, with a comparison of the stability of different BH4 or BH4-related compounds packaged in foil pouches.

[2] = Clinical evaluation of BH4 capsules: drug levels in cerebrospinal fluid; type: in vivo; settings: doses up to 40 mg/kg/day as a single dose; expected
Protocol: The clinical evaluation comprises two clinical studies.
A first study evaluates the relative bioavailability of BH4 dihydrochloride administered as a capsule in fasted conditions and after a meal in healthy subjects. Ascending doses of BH4 dihydrochloride up to 40 mg/kg/day are evaluated and drug levels in cerebrospinal fluid (CSF) are measured. […] Measurement of BH4 levels in CSF is expected to be indicative of BH4 availability in brain tissues.

physchem = type: physicochemical; settings: water
Excerpt: However, despite the commonality of wet granulation methods, it is not ideal for all blends. Specifically, BH4 dihydrochloride is moisture sensitive and will rapidly degrade in the presence of water. Furthermore, BH4 dihydrochloride is pH sensitive and commonly degrades in the presence of reducing sugars, flavoring agents, flavor enhancers, and aqueous solutions and thus wet blending of BH4 dihydrochloride with excipients can lead to degradation of the active ingredient. […] Accordingly, the dry blend method of producing a stable BH4 dihydrochloride powder sachet dosage is ideal.

[3] = children, after 6 months of treatment; cited from earlier work
[4] = room temperature, aqueous solutions; cited from earlier work
[5] = children treated for 4, 8, and 12 weeks; cited from earlier work

- Degradation/impurity: BH2 (Dihydrobiopterin) [1]: 0.04 area %
- Degradation/impurity: BH4 [1]: 0.05 area %
- Degradation/impurity: R-Tetrahydrobiolumazine [1]: 0.05 area %
- Degradation/impurity: S-BH4 [1]: 0.03 area %
- Potency (%) [1]: 100.6%
- Total Impurities (%) [1]: 0.17%
SMILES: C[C@H](O)[C@H](O)[C@H]1CNc2[nH]c(N)nc(=O)c2N1.Cl.Cl [100 μg/mL reference API]

- peak levels of BH4 in CSF [2]: higher peak levels
- solubility (physchem): > 100 mg/mL
SMILES: C[C@H](O)[C@H](O)[C@H]1CNc2nc(N)[nH]c(=O)c2N1 [BH4 dihydrochloride, (6R)-L-erythro-5,6,7,8-tetrahydrobiopterin dihydrochloride]

SMILES: C[C@H](O)[C@H](O)[C@H]1CNc2nc(N)[nH]c(=O)c2N1 [BH4, (6R)-L-erythro-5,6,7,8-tetrahydrobiopterin]
- social interaction scores [3]: significant improvement
- shelf-life [4]: less than 8 hours
- total scores on the Parental Satisfaction Survey (PSS) [5]: significant increases
